# Source: patent publication US20090298691A1, “METHODS AND COMPOSITIONS FOR CONTROL OF AQUATIC WEEDS USING HERBICIDAL COMBINATIONS WITH FLURIDONE” (priority 2008, published 2009)
# Key:
# Eurasian watermilfoil = assay: Example 5: Eurasian watermilfoil in 12 L tanks, 40 day exposure, root and shoot dry weights; format: in vivo; settings: 75 ppb; 40 days
# Excerpt: Apical sections (12 to 15 cm in length) of Eurasian watermilfoil (EWM) were taken from Sweetwater Lake, Ind. and from culture and planted into small pots (13.5 cm length×3.75 cm diameter) containing Wallace Farm® topsoil amended with 14-14-14 slow release Osmocote® fertilizer (˜2.5 g Osmocote/kg soil). Approximately 5 to 7 cm of the apical section extended above the sediment at planting, and a sand cap was placed over the potting soil (˜2 cm deep). Plants were then transferred to a 12 L acrylic tanks filled with well water. Plants were allowed to grow for 7 days before the following treatment was initiated in triple replicate:
# Plants were harvested at 40 days. At harvest, plants were rinsed free of algae, roots and shoots were separated, and placed in paper sacks in a drying oven for 4 days at 70° C. temperature, and dry weights were determined (FIG. 6).
# hydrilla [1] = settings: literature; cited from earlier work
# [2] = system: Rainbow River hydrilla (fluridone susceptible); assay: Example 1: hydrilla in 14 L cylinders, 25 days of exposure, total stem length and fresh weight; format: in vivo; settings: Hydrilla verticillata, 600 h, 12 ppb (combination 6 ppb each), read-out: stem length inhibited compared to control plants
# Excerpt: (§1) Apical sections of hydrilla were collected from Rainbow River and Lake Okahumpka, Fla. Hydrilla in Lake Okahumpka is known to have developed increased tolerance to fluridone (FRH). The biotype from Rainbow River has never been exposed to fluridone and is presumably fluridone susceptible. Apical sections were planted in potting soil amended with Osmocote fertilizer in small pots (13.5 cm length×3.75 cm diameter). A 2.54 cm sand layer was placed over the top of the potting soil. Pots containing each biotype of hydrilla were placed into 14 L acrylic cylinders and allowed to establish slight growth prior to treatment. Cylinders were then treated with penoxsulam (P) or fluridone (F) at 12 ppb, and fluridone+penoxsulam (1:1 ratio) at 6 ppb (3 ppb each) and 12 ppb (6 ppb each). All treatments were replicated 4 times. After 25 days of exposure, plants were harvested and total stem length and fresh weights were measured.
# [3] = system: Lake Okahumpka hydrilla (fluridone resistant biotype); assay: as above; format: in vivo, Hydrilla verticillata; settings: 12 ppb (combination 6 ppb each)
# Excerpt: as §1
# [4] = system: CAIP hydrilla (fluridone susceptible biotype); assay: Example 2: hydrilla in 14 L cylinders, c.a. 30 days exposure, plant weights; format: in vivo, Hydrilla verticillata; settings: 6 ppb
# Excerpt: (§2) Hydrilla was collected from three sources in Florida; two representing fluridone resistant biotypes (Lake Okahumpka and Lake Cypress) and one fluridone susceptible biotypes (CAIP). Apical sections containing a single meristem were planted in small pots (13.5 cm length×3.75 cm diameter) containing potting soil and amended with Osmocote fertilizer. Each biotype were placed into 14 L cylinders and allowed to establish growth for 6-days prior to treatment. Treatments were replicated three times and included: controls, penoxsulam 6 and 12 ppb; fluridone 6 and 12 ppb; combinations of fluridone+penoxsulam (1:1 ratio) at 12 ppb (6 ppb each). Plants were exposed for c.a. 30 days and then harvested to determine plant weights.
# [5] = system: Lake Cypress hydrilla (fluridone resistant biotype); assay: as above; format: in vivo, Hydrilla verticillata; settings: for biomass reduction: 6 ppb
# Excerpt: as §2
# [6] = system: Lake Okahumpka hydrilla (fluridone resistant biotype); assay: as above; format: in vivo, Hydrilla verticillata; settings: for biomass reduction: 6 ppb
# Excerpt: as §2
# [7] = system: fluridone resistant hydrilla biotype (Lake Cypress); assay: Example 3: hydrilla in 14 L cylinders, 56 days exposure, dry weights; format: in vivo, Hydrilla verticillata; settings: 3 ppb
# Excerpt: (§3) Hydrilla was collected from two sources in Florida representing a fluridone resistant biotype (Lake Cypress) and a fluridone susceptible biotype. Apical sections containing a single meristem were planted in small pots (13.5 cm length×3.75 cm diameter) containing potting soil and amended with Osmocote fertilizer. Each biotype were placed into 14 L cylinders and allowed to establish growth prior to treatment. Treatments were replicated three times and included: controls, penoxsulam or fluridone at 3 and 6 ppb; combinations of fluridone+penoxsulam (1:1 ratio) at 6 ppb (3 ppb of each). Plants were exposed for 56 days and then harvested to determine dry weights. At 14 days after treatment (DAT) net photosynthesis from exposed plant tissue was measured.
# [8] = system: fluridone susceptible hydrilla biotype; assay: as above; format: in vivo, Hydrilla verticillata; settings: 3 ppb
# Excerpt: as §3
# [9] = system: Hydrilla (FR), fluridone-resistant hydrilla; assay: Example 7: greenhouse mesocosm selectivity trial, 60-day exposure, aboveground shoot biomass; format: in vivo, Hydrilla verticillata; settings: total parts per billion, non-linear regression
# Excerpt: (§4) Five different native aquatic plants were acquired from a Florida supplier (Aquatic Plants of Florida, Sarasota, Fla.). These species were jointed spikerush (Eleocharis interstincta), spatterdock (Nuphar advena), soft-stem bulrush (Scirpus validus), and maidencane (Panicum hemitomon), and tapegrass (Vallisneria americana). The final native species in the trial—Egyptian panicgrass or Kissimmee ‘Knotgrass’ (Paspalidium geminatum)—and fluridone-resistant hydrilla were collected from West Lake Tohopekaliga (Osceola County, FL). Transplanted tissue for each native species included both young fresh shoot growth and a portion of root stock/rhizome. Hydrilla was planted as 30 cm sections of fresh apical shoot growth. All plants were transplanted into commercial retail topsoil amended with slow-release granular 14-14-14 fertilizer at rate of 2.5 g fertilizer per kg soil. Spatterdock rhizomes were transplanted into 11.4L plastic garden pots, while all other species were transplanted into 1.9-L pots. Soil in each pot was capped with a layer of sand. […]
# (§5) Three weeks after transplanting, herbicide stock solutions were used to apply either fluridone or penoxsulam alone or in combination. […] Four replicate pots of each species were harvested at time of treatment to quantify pre-treatment aboveground biomass. […]
# jointed spikerush = assay: as above; format: in vivo, Eleocharis interstincta; settings: total parts per billion, non-linear regression
# Excerpt: as §4, §5
# maidencane = assay: as above; format: in vivo, Panicum hemitomon; settings: total parts per billion, non-linear regression
# Excerpt: as §4, §5
# [10] = system: panicgrass (Egyptian panicgrass, Kissimmee 'Knotgrass'); assay: as above; format: in vivo, Paspalidium geminatum; settings: total parts per billion, non-linear regression
# Excerpt: as §4, §5
# soft-stem bulrush = assay: as above; format: in vivo, Scirpus validus; settings: total parts per billion, non-linear regression
# Excerpt: as §4, §5
# spatterdock = assay: as above; format: in vivo, Nuphar advena; settings: total parts per billion, non-linear regression
# Excerpt: as §4, §5
# tapegrass = assay: as above; format: in vivo, Vallisneria americana; settings: total parts per billion, non-linear regression
# Excerpt: as §4, §5
# hydrilla [11] = assay: Contact time of penoxsulam alone under operational field use; format: in vivo, Hydrilla verticillata
# target plant = settings: Sonar A.S. label; cited from earlier work
Compound,biomass reduction [4] [%],biomass reduction [5],biomass reduction [6],reduction in biomass compared to controls [7],reduction in biomass compared to controls [8] [%],Calculated EC50 on shoot biomass [9] [ppb],Calculated EC50 on shoot biomass (jointed spikerush) [ppb],Calculated EC50 on shoot biomass (maidencane) [ppb],Calculated EC50 on shoot biomass [10] [ppb],Calculated EC50 on shoot biomass (soft-stem bulrush) [ppb],Calculated EC50 on shoot biomass (spatterdock) [ppb],Calculated EC50 on shoot biomass (tapegrass) [ppb],other results
"O=C(O)COc1nc(Cl)c(Cl)cc1Cl [Triclopyr, 3,5,6-trichloro-2-pyridyloxyacetic acid]",,,,,,,,,,,,,above ground biomass reduction (Eurasian watermilfoil): 96%; below ground biomass reduction (Eurasian watermilfoil): 74%
"O=C(O)C1C2CCC(O2)C1C(=O)O (centres unmarked) [Endothall, 7-oxabicyclo[2.2.1]heptane-2,3-dicarboxylic acid]",,,,,,,,,,,,,contact with hydrilla to achieve effective control (hydrilla [1]): less than 72 hours
COc1cnc(OC)n2nc(NS(=O)(=O)c3c(OCC(F)F)cccc3C(F)(F)F)nc12 [Penoxsulam],63,57%,53%,~40%,~40,4.4,12.8,52.5,267.6,8.9,12.5,9.6,"inhibition at 0.012 ppm [2]: 50 to 60%; inhibition at 0.012 ppm ([3]; Hydrilla verticillata, 600 h, read-out: stem length inhibited compared to control plants): ~40%; contact time to achieve full hydrilla control (hydrilla [11]): greater than 4 months"
1-methyl-3-phenyl-5-3-(trifluoromethyl)phenyl-4(1H)-pyridinone [Fluridone],60,minimal affect,minimal affect,no effect,~50,10.1,28.3,4.4,14.4,5.3,2.5,4.4,"effect on fluridone tolerant biotype (stem length, biomass), in words [3]: little effect; stem length inhibited compared to control plants [3]: ~10%; effect on biomass, in words ([5]; up to 12 ppb): generally not affected; effect on biomass, in words ([6]; up to 12 ppb): generally not affected; minimum time maintained in contact with a target plant (target plant): ≥ 45 days"
